These results are taken from patent US20100130909A1, “TREATMENT OF BARRETT'S ESOPHAGUS USING PHOTODYNAMIC THERAPY” (HEALTH RESEARCH, INC., priority 2007, published 2010).

In data set [1] the test system is Barrett's esophagus tissue. Kind of data set: phase I/II trial of photodynamic therapy using HPPH in patients with Barrett's esophagus. In kind it is in vivo, human. Particulars: 30 patients. Here is the method:
injecting HPPH in a physiologically compatible medium into a patient having Barrett's esophagus tissue to provide a dose level of 3 through 5 mg/m^2 of body surface area, preferably 3 through 4 mg/m^2 of body surface area,
waiting for a time period of 24 through 60 hours to permit preferential absorption of the
HPPH into Barrett's esophagus tissue, and exposing the Barrett's esophagus tissue to light at a wavelength of about 670±5 nm at an energy of from 75 to 200 Joules/cm, preferably 75 to 200 Joules/cm.
Injection of the HPPH is preferably accomplished intravenously usually over a time period of 0.75 to 3 hours in a physiologically compatible medium. The time period is functionally dependent upon rate of infusion and dose level desired. The concentration is preferably 0.5 through 1.5 mg/ml in medium and the medium is preferably 0.1% polysorbate 80, 2% ethyl alcohol and 5% glucose in normal saline.
Exposure is accomplished using a fiber optic carrying laser light emitted by a laser. The laser may be any suitable laser emitting light at the wavelength and energy desired, e.g. a dye or diode laser. Exposure may be adjusted by length of time of exposure and/or adjustment of light intensity.
Using the above parameters, a phase I/II trial using HPPH and a phase III trial using PHOTOFRIN™, the latter approved by the United States Food and Drug Administration, the following results for response of Barrett's esophagus were obtained.

Data set [2] relates to Barrett's mucosa. Particulars: cited from earlier work; for Treatment response: CR, PDT + NdYAG thermal ablation: compilation of 1-3 PDT treatments + thermal ablation of small residual islands; for Complications: esophageal stricture / Treatment response: CR (no Barrett's esophagus tissue remained after treatment), PDT only: compilation of 1-3 PDT treatments; for Treatment response: CR (no Barrett's esophagus tissue remained after treatment), PDT only: porfimer sodium 2 mg/kg.

Where [3] appears, read: only 1 PDT treatment, percent of patients.
Where [4] appears, read: 100 patients, percent of patients.
Where [5] appears, read: 100 patients, percent of patients, listed as porfimer sodium.

Like-named read-outs stand apart in the source and are kept apart here.

In the case of “3-(1-hexyloxy) ethyl-derivative of pyropheophorbide-a [HPPH]”, in data set [1] (only 1 PDT treatment, does not include NdYAG thermal ablation), the “Treatment response: patients with >90 to <100% ablation, PDT only” value is reported as 47% (>90 to <100%. Further, in data set [1] (setting [3]), the “Complications: esophageal stricture” value came out at 12% and the “Treatment response: CR (no Barrett's esophagus tissue remained after treatment), PDT only” value is given as 4% CR. Further, the “Complications: sunburn” value in data set [1] (percent of patients) is less than 7%.
Consider porfimer sodium [PHOTOFRIN], for which the “Complete ablation of Barrett's mucosa (PDT only or with thermal ablation)” value in data set [2] (100 patients, 2 mg/kg, 630 nm, 100 to 250 J/cm, percent of patients) is given as 43%. The figures for the “Treatment response: CR, PDT + NdYAG thermal ablation” value in data set [2] (setting [4]) and in data set [2] (setting [5]) were 35% CR and 35%, respectively. Further, the “Complications: esophageal stricture” value in data set [2] (setting [4]) and in data set [2] (setting [5]) was 34% throughout. The “Treatment response: CR (no Barrett's esophagus tissue remained after treatment), PDT only” value in data set [2] (100 patients, 630 nm, 100 to 250 J/cm, percent of patients) is 8% CR; in data set [2] (100 patients, 630 nm, 100 to 250 J/cm, percent of patients, listed as porfimer sodium) it was 8%. In addition, the “Complications: sunburn” value in data set [2] (setting [4]) is listed as 25-30%. Also, the “replacement of Barrett's mucosa with normal esophageal mucosa” value in data set [2] (all 100 patients treated, 2 mg/kg, 630 nm, 100 to 250 J/cm, percent of mucosa) is 75-80%.
